Tested on: patients with HCC or other solid malignancies
Method: FGF401 was administered per oral under fasted condition or with low-fat meal on a continuous once daily (qd) regimen for both FGF401 single agent and in combination with spartalizumab. A 300-mg intravenous infusion of spartalizumab was administered once every three weeks (q3w) and 1 treatment cycle was defined as 21 days. The study treatment was administered until the patient experienced unacceptable toxicity, progressive disease and/or the treatment was discontinued at investigator’s discretion or patient’s withdrawal of consent. Figure 1 summarizes the study design and visit flow.
The secondary endpoints characterizing safety, efficacy, pharmacokinetics (PK), immunogenicity, and food effect properties of the FGF401 and the combination were based on the assessments on their respectively defined population sets. Adverse events (AEs) that emerged during treatment were monitored throughout the study until 30 days after discontinuation of the single agent and 150 days after discontinuation of the combination. Adverse events were coded using the Medical Dictionary for Regulatory Activities (MedDRA) and assessed as per Common Terminology Criteria for Adverse Events (CTCAE) version 4.03. The clinical laboratory assessments were collected no later than 30 days after the last date of study treatment administration. The grades were classified as low/normal/high when not defined by CTCAE v4.03. Other assessments of vital signs, physical examinations, and electrocardiogram (ECG) parameters were also performed.
Safety analyses conducted in the safety set constituted summaries for AEs occurring during on-treatment period with number and percentage of patients having at least 1 AE. Summaries presented overview of AEs and deaths (number and percentage of patients who died with any AE, SAE, dose reductions/interruptions, AE leading to discontinuation), SAEs, AEs related to study treatment, AEs leading to treatment discontinuation, dose interruption/adjustment or fatal outcome. Additionally, in combination part, summaries were produced using all treatment-related AEs starting or worsening during the on-treatment or extended safety follow-up periods (within 150 days after the date of last administration of study treatment).

[1] = single agent, All patients N = 160

Compound: COCCNc1cc(NC(=O)N2CCCc3cc(CN4CCN(C)CC4=O)c(C=O)nc32)ncc1C#N [FGF401, roblitinib]
- patients who died on treatment because of existing cancer (17 patients of 160): 10.6%
- discontinued treatment because of progressive disease (130 of 160 patients): 81%
- patients who died on treatment (Twenty patients of 160): 12.5%
- patients who died on treatment because of other reasons (gastric bleeding, multiple organ dysfunction syndrome, unknown cause): 3 patients
- AEs leading to FGF401 discontinuation, All grades (human, in vivo): 18 (11.3) n (%)
- AEs leading to FGF401 discontinuation, Grade 3 or 4 (human, in vivo): 13 (8.1) n (%)
- AEs leading to FGF401 discontinuation, Treatment related, All grades (human, in vivo): 12 (7.5) n (%)
- AEs leading to FGF401 discontinuation, Treatment related, Grade 3 or 4 (human, in vivo): 8 (5.0) n (%)
- AEs leading to FGF401 dose adjustment/interruption, All grades (human, in vivo): 80 (50.0) n (%)
- AEs leading to FGF401 dose adjustment/interruption, Grade 3 or 4 (human, in vivo): 58 (36.3) n (%)
- AEs leading to FGF401 dose adjustment/interruption, Treatment related, All grades (human, in vivo): 47 (29.4) n (%)
- AEs leading to FGF401 dose adjustment/interruption, Treatment related, Grade 3 or 4 (human, in vivo): 34 (21.3) n (%)
- ALT increased leading to FGF401 discontinuation (human, in vivo): 3.8%
- AST increased leading to FGF401 discontinuation (human, in vivo): 1.9%
- Constipation, Grade 3/4 (human, in vivo): 0 n (%)
- Decreased appetite, Grade 3/4 (human, in vivo): 0 n (%)
- Edema peripheral, Grade 3/4 (human, in vivo): 0 n (%)
- Grade 3 or 4 AEs suspected to be related to study treatment (human, in vivo): 31.9%
- Grade 3 or 4 related ALT elevated (human, in vivo): 15.0%
- Grade 3 or 4 related AST increased (human, in vivo): 18.8%
- Grade 3 or 4 related diarrhea (human, in vivo): 5.0%
- Nausea, Grade 3/4 (human, in vivo): 0 n (%)
- Primary reason for end of treatment: Adverse event (human, in vivo): 18 (11.3) n (%)
- Pyrexia, Grade 3/4 (human, in vivo): 0 n (%)
- SAEs, Treatment related, Grade 3 or 4 (human, in vivo): 7 (4.4) n (%)
- blood bilirubin increased leading to FGF401 discontinuation (human, in vivo): 2.5%
- dose interruption due to AEs (human, in vivo): 52.5%
- dose reduction due to AEs (human, in vivo): 18.1%
- patients with a grade 3 or 4 AE (human, in vivo): 72.5%
- patients with diarrhea (human, in vivo): 73.8%
- patients with dose interruption (human, in vivo): 60.6%
- patients with dose reduction (human, in vivo): 21.3%
- patients with increased ALT (human, in vivo): 43.8%
- patients with increased AST (human, in vivo): 47.5%
- Primary reason for end of treatment: Death (single agent N=160): 2 (1.3) n (%)
- Primary reason for end of treatment: Progressive disease (single agent N=160): 130 (81.3) n (%)
- AEs, All grades [1]: 160 (100) n (%)
- AEs, Grade 3 or 4 [1]: 116 (72.5) n (%)
- AEs, Treatment related, All grades [1]: 148 (92.5) n (%)
- AEs, Treatment related, Grade 3 or 4 [1]: 51 (31.9) n (%)
- Fatal SAEs, All grades [1]: 3 (1.9) n (%)
- Fatal SAEs, Grade 3 or 4 [1]: 3 (1.9) n (%)
- Fatal SAEs, Treatment related, All grades [1]: 0 n (%)
- Fatal SAEs, Treatment related, Grade 3 or 4 [1]: 0 n (%)
- SAEs, All grades [1]: 70 (43.8) n (%)
- SAEs, Grade 3 or 4 [1]: 55 (34.4) n (%)
- SAEs, Treatment related, All grades [1]: 8 (5.0) n (%)
